Values of other authors in PubChem BioAssay AID1259409 (Chemical Carcinogenesis Research Information System (CCRIS), 2018).

System: rodent chemically induced tumor inhibition, incidence and multiplicity
Experiment: CCRIS tumor inhibitor studies

Compound: CCCC(=O)C1=C(O)C(Cc2c(O)c(C)c(OC)c(C(=O)CCC)c2O)=C(O)C(C)(C)C1=O
- tumour outcome (control, treated, inhibition, significance) (Carcinogen: 7,12-DIMETHYLBENZ[A]ANTHRACENE [57-97-6], Dose [Inhibitor]: 85 NMOL/G IN 0.1 ML ACETONE 2X/WK FOR 20 WK 1 HR PRIOR TO EACH PROMOTER DOSE BEGINNING 1 WK POST LAST CARCINOGEN DOSE (S, Route [Inhibitor]: DERMAL, Species: MOUSE, Strain/Sex: ICR/FEMALE, Target Tissue: Type of Lesion: SKIN: PAPILLOMA, Dose [Carcinogen]: 390 NMOL IN 0.1 ML ACETONE ONCE (STUDY DURATION: 21 WK), Promoter: 12-O-TETRADECANOYL-13-ACETATE [16561-29-8]): 100%, 85%, 15%, not calculated

Compound: c1cc2c(cc1[C@H]1OC[C@@H]3[C@H]1CO[C@H]3c1ccc3c(c1)OCO3)OCO2
- tumour outcome (control, treated, inhibition, significance) (Carcinogen: 4-NITROQUINOLINE-N-OXIDE, 56-57-5, Dose [Inhibitor]: 0, 2.5 MG/100 ML DRINKING WATER (TOTAL WEEKLY DOSE 1.26 MG) FOR 25 WK BEGINNING 5 WK POST CARCINOGEN DOSE (STUDY DURATIO, Route [Inhibitor]: ORAL, Species: MOUSE, Strain/Sex: ICR/FEMALE, Target Tissue: Type of Lesion: LUNG: TUMOR, Dose [Carcinogen]: 0.3 MG ONCE, Promoter: GLYCEROL, 56-81-5): 87%, 47%, 46%, p<0.05
- tumour outcome (control, treated, inhibition, significance) (Carcinogen: 7,12-DIMETHYLBENZ[A]ANTHRACENE, 57-97-6, Dose [Inhibitor]: 0, 85 NMOL IN 0.1 ML ACETONE 2/WK FOR 20 WK APPLIED 1 HR PRIOR TO EACH PROMOTER DOSE (STUDY DURATION: 20 WK), Route [Inhibitor]: DERMAL, Species: MOUSE, Strain/Sex: ICR/FEMALE, Target Tissue: Type of Lesion: SKIN: PAPILLOMA, Dose [Carcinogen]: 100 UG IN 0.1 ML ACETONE ONCE, Promoter: 12-O-TETRADECANOYLPHORBOL-13-ACETATE, 16561-29-8): 100%, 85%, 15%, not calculated

Compound: Nc1nc(-c2ccccc2)c(Br)c(=O)[nH]1
- tumour outcome (control, treated, inhibition, significance) (Carcinogen: N-[4-(5-NITRO-2-FURYL)-2-THIAZOLYL]FORMAMIDE, 24554-26-5, Dose [Inhibitor]: 200 MG/KG IN CARBOXYMETHYL-CELLULOSE, POLYSORBATE 80, NACL AND BENZYL ALCOHOL, 2/WK BEGINNING ON DAY 30 OF CARCINOGEN TR, Route [Inhibitor]: INTRAGASTRIC, Species: MOUSE, Strain/Sex: C3H/FEMALE, Target Tissue: Type of Lesion: BLADDER: TRANSITIONAL CELL CARCINOMA, Dose [Carcinogen]: 0.13% IN DIET FOR 192 D, Promoter: NONE USED): 24/39 (62%), 6/43 (14%), 77%, p=0.0001
- tumour outcome (control, treated, inhibition, significance) (Carcinogen: N-[4-(5-NITRO-2-FURYL)-2-THIAZOLYL]FORMAMIDE, 24554-26-5, Dose [Inhibitor]: 200 MG/KG IN CARBOXYMETHYL-CELLULOSE, POLYSORBATE 80, NACL AND BENZYL ALCOHOL, 2/WK BEGINNING ON DAY 30 OF CARCINOGEN TR, Route [Inhibitor]: INTRAPERITONEAL, Species: MOUSE, Strain/Sex: C3H/FEMALE, Target Tissue: Type of Lesion: BLADDER: TRANSITIONAL CELL CARCINOMA, Dose [Carcinogen]: 0.13% IN DIET FOR 192 D, Promoter: NONE USED): 18/22 (82%), 5/9 (56%), 32%, p<0.2
- tumour outcome (control, treated, inhibition, significance) (Carcinogen: N-[4-(5-NITRO-2-FURYL)-2-THIAZOLYL]FORMAMIDE, 24554-26-5, Dose [Inhibitor]: 200 MG/KG IN CARBOXYMETHYL-CELLULOSE, POLYSORBATE 80, NACL AND BENZYL ALCOHOL, 2/WK BEGINNING ON DAY 150 OF CARCINOGEN T, Route [Inhibitor]: INTRAPERITONEAL, Species: MOUSE, Strain/Sex: C3H/FEMALE, Target Tissue: Type of Lesion: BLADDER: TRANSITIONAL CELL CARCINOMA, Dose [Carcinogen]: 0.13% IN DIET FOR 192 D, Promoter: NONE USED): 18/22 (82%), 17/19 (89%), -8%, p=0.489

Compound: CCN(CC)C(=S)S
- outcome (Carcinogen: DIETHYLNITROSAMINE, 55-18-5, Dose [Inhibitor]: 0, 50 MG/KG 1/WK FOR 5 WK ADMINISTERED 4 HR POST EACH CARCINOGEN DOSE (STUDY DURATION: 6 MO), Route [Inhibitor]: INTRAPERITONEAL, Species: RAT, Strain/Sex: BD6/FEMALE, Target Tissue: Type of Lesion: ESOPHAGUS: TUMOR, Dose [Carcinogen]: 80 MG/KG BW 1/WK FOR 5 WK, Promoter: NONE USED): 6%, 77, -1183%, p<0.001
- tumour outcome (control, treated, inhibition, significance) (Carcinogen: DIETHYLNITROSAMINE, 55-18-5, Dose [Inhibitor]: 0, 50 MG/KG 1/WK FOR 5 WK ADMINISTERED 4 HR POST EACH CARCINOGEN DOSE (STUDY DURATION: 6 MO), Route [Inhibitor]: INTRAPERITONEAL, Species: RAT, Strain/Sex: BD6/FEMALE, Target Tissue: Type of Lesion: LIVER: TUMOR, Dose [Carcinogen]: 80 MG/KG BW 1/WK FOR 5 WK, Promoter: NONE USED): 44%, 77%, -75%, not significant
- tumour outcome (control, treated, inhibition, significance) (Carcinogen: DIETHYLNITROSAMINE, 55-18-5, Dose [Inhibitor]: 0, 50 MG/KG 1/WK FOR 5 WK ADMINISTERED 4 HR POST EACH CARCINOGEN TREATMENT (STUDY DURATION: 6 MO), Route [Inhibitor]: INTRAPERITONEAL, Species: RAT, Strain/Sex: BD6/FEMALE, Target Tissue: Type of Lesion: ESOPHAGUS: TUMOR, Dose [Carcinogen]: 80 MG/KG BW 1/WK FOR 5 WK, Promoter: NONE USED): 14%, 94%, -571%, p<0.001
- tumour outcome (control, treated, inhibition, significance) (Carcinogen: DIETHYLNITROSAMINE, 55-18-5, Dose [Inhibitor]: 0, 50 MG/KG 1/WK FOR 5 WK ADMINISTERED 4 HR POST EACH CARCINOGEN TREATMENT (STUDY DURATION: 6 MO), Route [Inhibitor]: INTRAPERITONEAL, Species: RAT, Strain/Sex: BD6/FEMALE, Target Tissue: Type of Lesion: LIVER: TUMOR, Dose [Carcinogen]: 80 MG/KG BW 1/WK FOR 5 WK, Promoter: NONE USED): 52%, 44%, 15%, not significant
- tumour outcome (control, treated, inhibition, significance) (Carcinogen: DIETHYLNITROSAMINE, 55-18-5, Dose [Inhibitor]: 0, 50 MG/KG 1/WK FOR 5 WK ADMINISTERED 24 HR POST EACH CARCINOGEN TREATMENT (STUDY DURATION: 6 MO), Route [Inhibitor]: INTRAPERITONEAL, Species: RAT, Strain/Sex: BD6/FEMALE, Target Tissue: Type of Lesion: LIVER: TUMOR, Dose [Carcinogen]: 80 MG/KG BW 1/WK FOR 5 WK, Promoter: NONE USED): 52%, 32%, 38%, not significant
- tumour outcome (control, treated, inhibition, significance) (Carcinogen: DIETHYLNITROSAMINE, 55-18-5, Dose [Inhibitor]: 0, 50 MG/KG 1/WK FOR 5 WK ADMINISTERED 24 HR POST EACH CARCINOGEN TREATMENT(STUDY DURATION: 6 MO), Route [Inhibitor]: INTRAPERITONEAL, Species: RAT, Strain/Sex: BD6/FEMALE, Target Tissue: Type of Lesion: ESOPHAGUS: TUMOR, Dose [Carcinogen]: 80 MG/KG BW 1/WK FOR 5 WK, Promoter: NONE USED): 14%, 4%, 71%, not significant
